Experimental findings from patent US20240368194A1, “IRAK4 DEGRADATION AGENT, AND PREPARATION METHOD THEREFOR AND USE THEREOF” (SHANGHAI LEADINGTAC PHARMACEUTICAL CO. LTD., priority 2021, published 2024) are described below.

The structures appear in SMILES notation.

Chain of IRAK4 protein in THP-1 cells (Q9NWZ3 whole entry): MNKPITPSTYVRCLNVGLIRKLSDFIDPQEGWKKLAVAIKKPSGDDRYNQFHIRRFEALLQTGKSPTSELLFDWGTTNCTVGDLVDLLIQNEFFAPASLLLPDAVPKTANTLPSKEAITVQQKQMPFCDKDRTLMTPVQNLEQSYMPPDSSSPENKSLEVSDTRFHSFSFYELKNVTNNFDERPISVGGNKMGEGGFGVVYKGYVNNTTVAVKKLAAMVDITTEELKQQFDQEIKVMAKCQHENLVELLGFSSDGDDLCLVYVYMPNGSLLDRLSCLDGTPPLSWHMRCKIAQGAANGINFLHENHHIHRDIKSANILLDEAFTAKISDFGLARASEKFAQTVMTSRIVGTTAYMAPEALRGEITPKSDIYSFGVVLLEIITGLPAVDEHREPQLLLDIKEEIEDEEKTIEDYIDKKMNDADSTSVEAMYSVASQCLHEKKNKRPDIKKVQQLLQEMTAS
Chain of IRAK4 kinase (Q9NWZ3 whole entry): as above

The first assay deals with IRAK4 kinase (Homo sapiens (Human), UniProt Q9NWZ3). As to the kind of experiment: IRAK4 kinase activity test (KinEASE-STK S1 HTRF kit). It counts as biochemical. The note with it: 2.5 nM IRAK4 kinase, 7 μM ATP, 37° C. 120 min. The method, then:
Then 2.5 nM 1RAK4 kinase (Carna), 1 μM biotinylated polypeptide substrate (Cisbio) and 7 μM adenosine triphosphate (Sigma-Aldrich) were sequentially added, and the mixtures were incubated at 37° C. for 120 min. Subsequently, an anti-phosphoserine/threonine antibody (Cisbio) conjugated with a europium element compound and conjugated modified XL665 streptavidin (Cisbio) were added to the reaction systems to stop the reactions. After 1 h of incubation at room temperature, the fluorescence intensity of each well was measured at the excitation wavelength of 337 nm and the emission wavelengths of 620 nm and 665 nm with a microplate reader EnVision (PerkinElmer) in the HTRF mode, and Ratio values were calculated using the formula Ratio=(665 nm/620 nm)×[…]. The inhibition rate of the compound at each concentration was calculated by comparing the fluorescence intensity ratio with that of the control group. Then a non-linear curve fitting of logarithmic concentration-inhibition rate was performed using GraphPad Prism 7, and the IC50 value of the compound was obtained.
For orientation: In TR-FRET formats the signal depends on donor and acceptor labels being close together.
The IC50 is the midpoint of a concentration-inhibition curve. `O=C1CCN(c2cc(C(=O)N3CCN(C[C@H]4CC[C@H](n5cc(NC(=O)c6cnn7ccc(N8C[C@H]9C[C@@H]8CO9)nc67)c(C(F)F)n5)CC4)CC3)ccc2Cl)C(=O)N1` [Example 3, 5-((1R,4R)-2-oxa-5-azabicyclo[2.2.1]heptan-5-yl)-N-(1-((1R,4R)-4-((4-(4-chloro-3-(2,4-dioxotetrahydropyrimidin-1(2H)-yl)benzoyl)piperazin-1-yl)methyl)cyclohexyl)-3-(difluoromethyl)-1H-pyrazol-4-yl)pyrazolo[1,5-a]pyrimidine-3-carboxamide] yielded an IC50 of 67.2 nM.

Compound `CN(CC1CCN(C(=O)c2ccc(Cl)c(N3CCC(=O)NC3=O)c2)CC1)C[C@H]1CC[C@H](n2cc(NC(=O)c3cnn4ccc(N5C[C@H]6C[C@@H]5CO6)nc34)c(C(F)F)n2)CC1` [Example 4, 5-((1R,4R)-2-oxa-5-azabicyclo[2.2.1]heptan-5-yl)-N-(1-((1R,4R)-4-((((1-(4-chloro-3-(2,4-dioxotetrahydropyrimidin-1(2H)-yl)benzoyl)piperidin-4-yl)methyl)(methyl)amino)methyl)cyclohexyl)-3-(difluoromethyl)-1H-pyrazol-4-yl)pyrazolo[1,5-a]pyrimidine-3-carboxamide] displayed an IC50 of 37 nM.

`O=C1CCN(c2cc(C(=O)N3CCC4(CCN(CC5CCN(c6ccc(NC(=O)c7cnn8ccc(N9C[C@H]%10C[C@@H]9CO%10)nc78)c(Cl)c6)CC5)CC4)CC3)ccc2Cl)C(=O)N1` [Example 6, 5-((1R,4R)-2-oxa-5-azabicyclo[2.2.1]heptan-5-yl)-N-(2-chloro-4-(4-((9-(4-chloro-3-(2,4-dioxotetrahydropyrimidin-1(2H)-yl)benzoyl)-3,9-diazaspiro[5.5]undecan-3-yl)methyl)piperidin-1-yl)phenyl)pyrazolo[1,5-a]pyrimidine-3-carboxamide] came in with an IC50 of 524 nM.

Regarding `O=C1CCN(c2cc(C(=O)N3CCC(CCOC[C@H]4CC[C@@H](n5cc(NC(=O)c6cnn7ccc(N8C[C@H]9C[C@@H]8CO9)nc67)c(C(F)F)n5)CC4)CC3)ccc2Cl)C(=O)N1` [Example 9, 5-((1R,4R)-2-oxa-5-azabicyclo[2.2.1]heptan-5-yl)-N-(1-((1R,4R)-4-((2-(1-(4-chloro-3-(2,4-dioxotetrahydropyrimidin-1(2H)-yl)benzoyl)piperidin-4-yl)ethoxy)methyl)cyclohexyl)-3-(difluoromethyl)-1H-pyrazol-4-yl)pyrazolo[1,5-a]pyrimidine-3-carboxamide], the half-inhibitory concentration (IC50) was 131 nM.

On to `O=C1CCN(c2cc(C(=O)N3CCC(C#CCN4CCC(n5cc(NC(=O)c6cnn7ccc(N8C[C@H]9C[C@@H]8CO9)nc67)c(C(F)F)n5)CC4)CC3)ccc2Cl)C(=O)N1` [Example 12, 5-((1R,4R)-2-oxa-5-azabicyclo[2.2.1]heptan-5-yl)-N-(1-(1-(3-(1-(4-chloro-3-(2,4-dioxotetrahydropyrimidin-1(2H)-yl)benzoyl)piperidin-4-yl)prop-2-yn-1-yl)piperidin-4-yl)-3-(difluoromethyl)-1H-pyrazol-4-yl)pyrazolo[1,5-a]pyrimidine-3-carboxamide], for which the midpoint of inhibition, the IC50, lay at 270 nM.

`O=C1CCN(c2cc(C(=O)N3CCC(CCCN4CCC(n5cc(NC(=O)c6cnn7ccc(N8C[C@H]9C[C@@H]8CO9)nc67)c(C(F)F)n5)CC4)CC3)ccc2Cl)C(=O)N1` [Example 14, 5-((1R,4R)-2-oxa-5-azabicyclo[2.2.1]heptan-5-yl)-N-(1-(1-(3-(1-(4-chloro-3-(2,4-dioxotetrahydropyrimidin-1(2H)-yl)benzoyl)piperidin-4-yl)propyl)piperidin-4-yl)-3-(difluoromethyl)-1H-pyrazol-4-yl)pyrazolo[1,5-a]pyrimidine-3-carboxamide] showed an IC50 of 124 nM.

Compound `O=C1CCN(c2ccc(C(=O)N3CCC4(CCC(CN5CCC(n6cc(NC(=O)c7cnn8ccc(N9CCOCC9)nc78)c(C(F)F)n6)CC5)CC4)CC3)cc2)C(=O)N1` [Example 27, N-(3-(difluoromethyl)-1-(1-((3-(4-(2,4-dioxotetrahydropyrimidin-1(2H)-yl)benzoyl)-3-azaspiro[5.5]undecan-9-yl)methyl)piperidin-4-yl)-1H-pyrazol-4-yl)-5-morpholinopyrazolo[1,5-a]pyrimidine-3-carboxamide] showed an IC50 of 13.5 nM.

Consider `O=C1CCN(c2cc(N3CCN(CCCCN4CCC(n5cc(NC(=O)c6cnn7ccc(N8C[C@H]9C[C@@H]8CO9)nc67)c(C(F)F)n5)CC4)CC3)ccc2Cl)C(=O)N1` [Example 51, 5-((1R,4R)-2-oxa-5-azabicyclo[2.2.1]heptan-5-yl)-N-(1-(1-(4-(4-(4-chloro-3-(2,4-dioxotetrahydropyrimidin-1(2H)-yl)phenyl)piperazin-1-yl)butyl)piperidin-4-yl)-3-(difluoromethyl)-1H-pyrazol-4-yl)pyrazolo[1,5-a]pyrimidine-3-carboxamide], for which the IC50 turned out to be 27.1 nM.

As to `O=C1CCC(c2cc(C(=O)N3CCN(CCCC(=O)N4CCC(n5cc(NC(=O)c6cnn7ccc(N8CCOCC8)nc67)c(C(F)F)n5)CC4)CC3)ccc2F)C(=O)N1` (stereo not shown) [Example 62, N-(3-(difluoromethyl)-1-(1-(4-(4-(3-(2,6-dioxopiperidin-3-yl)-4-fluorobenzoyl)piperazin-1-yl)butanoyl)piperidin-4-yl)-1H-pyrazol-4-yl)-5-morpholinopyrazolo[1,5-a]pyrimidine-3-carboxamide], inhibition was half-maximal at 28.9 nM (IC50).

A further assay addresses IRAK4 protein in THP-1 cells (Homo sapiens (Human), UniProt Q9NWZ3). Nature of the assay: Degradation of IRAK4 in THP-1 cells, human IRAK4 AlphaLISA assay. The note with it: 24 h incubation. In kind it is cell-based. Here is the method: THP-1 cells (Stem Cell Bank, Chinese Academy of Sciences) were inoculated onto a 24-well cell culture plate at 0.95 mL/well, with a cell density of 5×10^5 cells/well. The cell plate was incubated overnight in a 37° C., 5% carbon dioxide incubator, and 50 μL of a solution of a compound in dimethyl sulfoxide was added, such that the final concentration of the compound fell within the range of 0.03-3000 nM. After another 24 h of incubation, cells were collected into 1.5 mL centrifuge tubes and centrifuged at 1000 rpm at 4° C. for 5 min. The cell pellets were washed twice with 1×DPBS. The resuspended cells were lysed with 200 μL of lysis buffer (Western and IP cell lysis buffer (Beyotime), supplemented with 1 mM phenylmethylsulfonyl fluoride and protease inhibitor cocktail (Beyotime)), left to stand on ice for 30 mini, and then centrifuged at 14,000 g at 4° C. for 10 min. The supernatant samples were assayed by Western Blot for IRAK4 protein levels.
The above cell lysates were also tested for IRAK4 degradation using a human IRAK4 AlphaLISA assay kit (PerkinElmer, AL3117C). The method is specifically as follows: 2-μL test samples of cell lysate supernatant were transferred to a white 384-well plate (PerkinElmer, 6007299), and 4 μL of 5× anti-IRAK4 receptor beads (PerkinElmer, final concentration of 10 μg/mL) was then added. The plate was incubated at 23° C. for 30 min. Then 4 μL of 5× biotin-labeled anti-IRAK4 antibody (PerkinElmer, final concentration of 1 nM) was added, and the plate was incubated at 23° C. for 60 min. Finally, 10 μL of 2′ streptavidin-labeled donor beads (final concentration of 40 μg/mL) was added to each well, and the plate was incubated in the dark at 23° C. for 30 min. After the incubation was complete, AlphaLISA signal values were measured on a microplate reader EnVision (PerkinElmer, 2105) in the AlphaScreen standard mode, and IRAK4 concentrations were calculated from these signal values. Then a non-linear curve fitting of logarithmic concentration-inhibition rate was performed using GraphPad Prism 7, and the DC50 and Dmax values of the compound were obtained.
For orientation: Bead proximity is the source of the signal in Alpha formats.
The term DC50 denotes the midpoint of the concentration-degradation curve. A low value points to degradation at low concentration. As to `O=C1CCN(c2cc(C(=O)N3CCC(CCOC[C@H]4CC[C@@H](n5cc(NC(=O)c6cnn7ccc(N8C[C@H]9C[C@@H]8CO9)nc67)c(C(F)F)n5)CC4)CC3)ccc2Cl)C(=O)N1` [Example 9, 5-((1R,4R)-2-oxa-5-azabicyclo[2.2.1]heptan-5-yl)-N-(1-((1R,4R)-4-((2-(1-(4-chloro-3-(2,4-dioxotetrahydropyrimidin-1(2H)-yl)benzoyl)piperidin-4-yl)ethoxy)methyl)cyclohexyl)-3-(difluoromethyl)-1H-pyrazol-4-yl)pyrazolo[1,5-a]pyrimidine-3-carboxamide], it took 129 nM to reach half-maximal degradation (DC50) and the “Dmax (%)” value was determined as 81.0%.

For orientation: Dmax means the largest share of the target that was removed. With `O=C1CCN(c2cc(C(=O)N3CCC4(CCN(C[C@H]5CC[C@H](n6cc(NC(=O)c7cnn8ccc(N9CC%10(COC%10)C9)nc78)c(C(F)F)n6)CC5)CC4)CC3)ccc2Cl)C(=O)N1` [Example 48, N-(1-((1R,4R)-4-((9-(4-chloro-3-(2,4-dioxotetrahydropyrimidin-1(2H)-yl)benzoyl)-3,9-diazaspiro[5.5]undecan-3-yl)methyl)cyclohexyl)-3-(difluoromethyl)-1H-pyrazol-4-yl)-5-(2-oxa-6-azaspiro[3.3]heptan-6-yl)pyrazolo[1,5-a]pyrimidine-3-carboxamide], half-maximal degradation (DC50) was put at 5.55 nM and the Dmax was determined as 94.4%.

`CN(CCC1CCN(C(=O)c2ccc(F)c(C3CCC(=O)NC3=O)c2)CC1)C(=O)[C@H]1CC[C@H](n2cc(NC(=O)c3cnn4ccc(N5CCOCC5)nc34)c(C(F)F)n2)CC1` (stereo partly drawn) [Example 54, N-(3-(difluoromethyl)-1-((1R,4R)-4-((2-(1-(3-(2,6-dioxopyridin-3-yl)-4-fluorobenzoyl)piperidin-4-yl)ethyl)(methyl)carbamoyl)cyclohexyl)-1H-pyrazol-4-yl)-5-morpholinopyrazolo[1,5-a]pyrimidine-3-carboxamide] had a DC50 of 8.13 nM and a Dmax of 88.2%.

`COc1ccc(C(=O)N2CCC3(CCC(N(C)C[C@H]4CC[C@H](n5cc(NC(=O)c6cnn7ccc(N8CCOCC8)nc67)c(C(F)F)n5)CC4)CC3)CC2)cc1N1CCC(=O)NC1=O` [Example 59, N-(3-(difluoromethyl)-1-((1R,4R)-4-(((3-(3-(2,4-dioxotetrahydropyrimidin-1(2H)-yl)-4-methoxybenzoyl)-3-azaspiro[5.5]undecan-9-yl)(methyl)amino)methyl)cyclohexyl)-1H-pyrazol-4-yl)-5-morpholinopyrazolo[1,5-a]pyrimidine-3-carboxamide] came in with a DC50 of 7.92 nM and a Dmax of 70.8%.

As to `CN(CCC1CCN(C(=O)c2ccc(Cl)c(N3CCC(=O)NC3=O)c2)CC1)C[C@]1(O)CC[C@@H](n2cc(NC(=O)c3cnn4ccc(N5C[C@H]6C[C@@H]5CO6)nc34)c(C(F)F)n2)CC1` [Example 65, 5-((1R,4R)-2-oxa-5-azabicyclo[2.2.1]heptan-5-yl)-N-(1-((1S,4S)-4-(((2-(1-(4-chloro-3-(2,4-dioxotetrahydropyrimidin-1(2H)-yl)benzoyl)piperidin-4-yl)ethyl)(methyl)amino)methyl)-4-hydroxycyclohexyl)-3-(difluoromethyl)-1H-pyrazol-4-yl)pyrazolo[1,5-a]pyrimidine-3-carboxamide], the DC50 came to 14.3 nM and the Dmax came out at 87.2%.
